Active and inactive are the calls of the source. The rule behind the calls is not given here.
Experiments:
[1] = Solubility of the compound in water; type: physicochemical; settings: buffer
[2] = test system: Calf thymus DNA; assay: Binding affinity to calf thymus DNA in citric acid buffer at pH 5 by fluorescence titration assay relative to control; type: nucleic-acid assay; settings: Bos taurus
[3] = test system: Calf thymus DNA; assay: Binding affinity to calf thymus DNA in citric acid buffer at pH 5 by fluorescence titration assay; type: nucleic-acid assay; settings: Bos taurus
[4] = test system: Nucleic Acid; assay: Binding affinity to poly dA-poly dT RNA in citric acid buffer at pH 5 by fluorescence titration assay relative to control; type: nucleic-acid assay
[5] = test system: Nucleic Acid; assay: Binding affinity to poly A-poly U RNA in citric acid buffer at pH 5 by fluorescence titration assay relative to control; type: nucleic-acid assay
[6] = test system: Nucleic Acid; assay: Binding affinity to poly G-poly C RNA in citric acid buffer at pH 5 by fluorescence titration assay relative to control; type: nucleic-acid assay
[7] = test system: Nucleic Acid; assay: Binding affinity to poly G-poly C RNA in citric acid buffer at pH 5 by fluorescence titration assay; type: nucleic-acid assay
[8] = test system: Calf thymus DNA; assay: Binding affinity to calf thymus DNA in sodium cacodylate buffer at pH 7 by fluorescence titration assay; type: nucleic-acid assay; settings: Bos taurus
[9] = test system: Nucleic Acid; assay: Binding affinity to poly dA-poly dT RNA in sodium cacodylate buffer at pH 7 by fluorescence titration assay relative to control; type: nucleic-acid assay
[10] = test system: Nucleic Acid; assay: Binding affinity to poly dA-poly dT RNA in sodium cacodylate buffer at pH 7 by fluorescence titration assay; type: nucleic-acid assay
[11] = test system: Nucleic Acid; assay: Binding affinity to poly A-poly U RNA in sodium cacodylate buffer at pH 7 by fluorescence titration assay relative to control; type: nucleic-acid assay
[12] = test system: Nucleic Acid; assay: Binding affinity to poly A-poly U RNA in sodium cacodylate buffer at pH 7 by fluorescence titration assay; type: nucleic-acid assay
[13] = test system: Nucleic Acid; assay: Binding affinity to […] assessed as change in melting temperature at compound to DNA molar ratio of 0.2 at pH 5 by thermal denaturation assay; type: nucleic-acid assay
[14] = test system: Nucleic Acid; assay: Binding affinity to […] assessed as change in melting temperature at compound to DNA molar ratio of 0.3 at pH 5 by thermal denaturation assay; type: nucleic-acid assay
[15] = test system: Nucleic Acid; assay: Binding affinity to poly A-poly U RNA assessed as change in melting temperature at compound to DNA molar ratio of 0.2 at pH 5 by thermal denaturation assay; type: nucleic-acid assay
[16] = test system: Calf thymus DNA; assay: Binding affinity to calf thymus DNA assessed as change in melting temperature at compound to DNA molar ratio of 0.2 at pH 7 by thermal denaturation assay; type: nucleic-acid assay; settings: Bos taurus
[17] = test system: Calf thymus DNA; assay: Binding affinity to calf thymus DNA assessed as change in melting temperature at compound to DNA molar ratio of 0.3 at pH 7 by thermal denaturation assay; type: nucleic-acid assay; settings: Bos taurus
[18] = test system: Nucleic Acid; assay: Binding affinity to […] assessed as change in melting temperature at compound to DNA molar ratio of 0.2 at pH 7 by thermal denaturation assay; type: nucleic-acid assay
[19] = test system: Nucleic Acid; assay: Binding affinity to poly A-poly U RNA assessed as change in melting temperature at compound to DNA molar ratio of 0.2 at pH 7 by thermal denaturation assay; type: nucleic-acid assay
[20] = test system: Nucleic Acid; assay: Binding affinity to poly A-poly U RNA assessed as change in melting temperature at compound to DNA molar ratio of 0.3 at pH 7 by thermal denaturation assay; type: nucleic-acid assay
[21] = test system: Calf thymus DNA; assay: Binding affinity to calf thymus DNA at compound to DNA molar ratio of 0.1 to 0.5 at pH 5 by circular dichroism; type: nucleic-acid assay; settings: Bos taurus
[22] = test system: Nucleic Acid; assay: Binding affinity to poly A-poly U RNA at compound to DNA molar ratio of 0.1 to 0.5 at pH 5 by circular dichroism; type: nucleic-acid assay
[23] = test system: Nucleic Acid; assay: Binding affinity to poly A-poly U RNA at compound to DNA molar ratio of 0.1 to 0.5 at pH 7 by circular dichroism; type: nucleic-acid assay
[24] = test system: Caco-2; assay: Cytotoxicity against human Caco-2 cells at 100 uM after 72 hrs by MTT assay; type: functional, cell-based
[25] = test system: MIA PaCa-2; assay: Cytotoxicity against human MIAPaCa2 cells at 100 uM after 72 hrs by MTT assay; type: functional; settings: MIA PaCa-2, 72 h
[26] = test system: MIA PaCa-2; assay: Cytotoxicity against human MIAPaCa2 cells after 72 hrs by MTT assay; type: functional, cell-based
[27] = test system: Caco-2; assay: Cytotoxicity against human Caco-2 cells at 0.1 to 100 uM after 72 hrs by MTT assay; type: functional, cell-based
[28] = test system: MIA PaCa-2; assay: Cytotoxicity against human MIAPaCa2 cells at 0.1 to 100 uM after 72 hrs by MTT assay; type: functional, cell-based
[29] = test system: HeLa; assay: Cytotoxicity against human HeLa cells at 0.1 to 100 uM after 72 hrs by MTT assay; type: functional, cell-based
[30] = test system: HT-29; assay: Cytotoxicity against human HT-29 cells at 0.1 to 100 uM after 72 hrs by MTT assay; type: functional, cell-based
[31] = test system: Nucleic Acid; assay: Binding affinity to AMP in citric acid buffer at pH 5 by fluorescence titration assay relative to control; type: nucleic-acid assay
[32] = test system: Nucleic Acid; assay: Binding affinity to GMP in citric acid buffer at pH 5 by fluorescence titration assay relative to control; type: nucleic-acid assay
[33] = test system: Nucleic Acid; assay: Binding affinity to CMP in citric acid buffer at pH 5 by fluorescence titration assay relative to control; type: nucleic-acid assay
[34] = test system: Nucleic Acid; assay: Binding affinity to UMP in citric acid buffer at pH 5 by fluorescence titration assay relative to control; type: nucleic-acid assay
[35] = test system: Nucleic Acid; assay: Binding affinity to GMP in sodium cacodylate buffer at pH 7 by fluorescence titration assay relative to control; type: nucleic-acid assay
[36] = test system: Calf thymus DNA; assay: Binding affinity to calf thymus DNA assessed as melting temperature at compound to DNA molar ratio of 0.2 at pH 5 by thermal denaturation assay; type: nucleic-acid assay; settings: Bos taurus
[37] = test system: Nucleic Acid; assay: Binding affinity to […] assessed as melting temperature at compound to DNA molar ratio of 0.2 at pH 5 by thermal denaturation assay; type: nucleic-acid assay
[38] = test system: Nucleic Acid; assay: Binding affinity to […] assessed as melting temperature at compound to DNA molar ratio of 0.3 at pH 5 by thermal denaturation assay; type: nucleic-acid assay
[39] = test system: Nucleic Acid; assay: Binding affinity to poly A-poly U RNA assessed as melting temperature at compound to DNA molar ratio of 0.2 at pH 5 by thermal denaturation assay; type: nucleic-acid assay
[40] = test system: Calf thymus DNA; assay: Binding affinity to calf thymus DNA assessed as melting temperature at compound to DNA molar ratio of 0.2 at pH 7 by thermal denaturation assay; type: nucleic-acid assay; settings: Bos taurus
[41] = test system: Calf thymus DNA; assay: Binding affinity to calf thymus DNA assessed as melting temperature at compound to DNA molar ratio of 0.3 at pH 7 by thermal denaturation assay; type: nucleic-acid assay; settings: Bos taurus
[42] = test system: Nucleic Acid; assay: Binding affinity to […] assessed as melting temperature at compound to DNA molar ratio of 0.2 at pH 7 by thermal denaturation assay; type: nucleic-acid assay
[43] = test system: Nucleic Acid; assay: Binding affinity to […] assessed as melting temperature at compound to DNA molar ratio of 0.3 at pH 7 by thermal denaturation assay; type: nucleic-acid assay
[44] = test system: Nucleic Acid; assay: Binding affinity to poly A-poly U RNA assessed as melting temperature at compound to DNA molar ratio of 0.2 at pH 7 by thermal denaturation assay; type: nucleic-acid assay
[45] = test system: Nucleic Acid; assay: Binding affinity to poly A-poly U RNA assessed as biphasic transitions of melting temperature at compound to DNA molar ratio of 0.2 at pH 5 by thermal denaturation assay; type: nucleic-acid assay

## Cc1c2cc(NC(=O)NCCNC(=O)Nc3ccc4c(c3)c(C)[n+](C)c3ccccc43)ccc2c2ccccc2[n+]1C.O=S(=O)([O-])O.O=S(=O)([O-])O
[1]
  solubility: 1460 µM
[2]
  RFU: 2.6
[3]
  log Ks: 6.4
[4]
  RFU: 56
[5]
  RFU: 2.3
[6]
  RFU: 0
[7]
  log Ks: 5.5
[8]
  log Ks: 6.1
[9]
  RFU: 15
[10]
  log Ks: 5.3
[11]
  RFU: 9.2
[12]
  log Ks: 5.3
[13]
  ΔTm: 9.4 °C
[14]
  ΔTm: 10.7 °C
[15]
  ΔTm: 1.5 °C
[16]
  ΔTm: 2.4 °C
[17]
  ΔTm: 3.8 °C
[18]
  ΔTm: 5.3 °C
[19]
  ΔTm: 0 °C
[20]
  ΔTm: 0 °C
[21]
  Activity: Active
[22]
  Activity: Active
[23]
  Activity: Active
[24]
  Activity: inactive
[25]
  inhibition at 100 µM: 35%
[26]
  Activity: Dose-dependent effect
[27]
  Activity: Active
[28]
  Activity: Active
[29]
  Activity: Active
[30]
  Activity: Active
[31]
  RFU: -6.9
[32]
  RFU: 23.5
[33]
  RFU: 0.3
[34]
  RFU: -13.5
[35]
  RFU: 34.2
[36]
  Tm: 72.7 °C
[37]
  Tm: 59.4 °C
[38]
  Tm: 60.7 °C
[39]
  Tm: 84.1 °C
[40]
  Tm: 81.7 °C
[41]
  Tm: 83.1 °C
[42]
  Tm: 70.2 °C
[43]
  Tm: 71 °C
[44]
  Tm: 51.5 °C
[45]
  Tm: 30.7 °C

## Cc1c2cc(NC(=O)NCCCCCCNC(=O)Nc3ccc4c(c3)c(C)[n+](C)c3ccccc43)ccc2c2ccccc2[n+]1C.O=S(=O)([O-])O.O=S(=O)([O-])O
[1]
  solubility: 1240 µM
[2]
  RFU: 2.7
[3]
  log Ks: > 7
[4]
  RFU: 24
[5]
  RFU: 20
[6]
  RFU: 0
[7]
  log Ks: 5.5
[8]
  log Ks: 6.2
[9]
  RFU: 10.7
[10]
  log Ks: 5.3
[11]
  RFU: 15.8
[12]
  log Ks: 5.4
[13]
  ΔTm: 9.7 °C
[14]
  ΔTm: 10.4 °C
[15]
  ΔTm: 2.2 °C
[16]
  ΔTm: 3.9 °C
[17]
  ΔTm: 5.5 °C
[18]
  ΔTm: 5.2 °C
[19]
  ΔTm: 0 °C
[20]
  ΔTm: 0 °C
[21]
  Activity: Active
[22]
  Activity: Active
[23]
  Activity: Active
[24]
  Activity: Active
[25]
  inhibition at 100 µM: 43.1%
[26]
  Activity: Dose-dependent effect
[27]
  Activity: Active
[28]
  Activity: Active
[29]
  Activity: Active
[30]
  Activity: Active
[31]
  RFU: 3.8
[32]
  RFU: 31.6
[33]
  RFU: -15.3
[34]
  RFU: -11.5
[35]
  RFU: 6.3
[36]
  Tm: 74.6 °C
[37]
  Tm: 59.7 °C
[38]
  Tm: 60.4 °C
[39]
  Tm: 83 °C
[40]
  Tm: 83.2 °C
[41]
  Tm: 84.8 °C
[42]
  Tm: 70.1 °C
[43]
  Tm: 71.3 °C
[44]
  Tm: 51.5 °C
[45]
  Tm: 31.4 °C

## Cc1c2cc(NC(=O)NCCCCCCCCCNC(=O)Nc3ccc4c(c3)c(C)[n+](C)c3ccccc43)ccc2c2ccccc2[n+]1C.O=S(=O)([O-])O.O=S(=O)([O-])O
[1]
  solubility: 1060 µM
[2]
  RFU: 0.3
[3]
  log Ks: 5.6
[4]
  RFU: 2.3
[5]
  RFU: 8.1
[6]
  RFU: 0
[7]
  log Ks: 5.2
[8]
  log Ks: 5.9
[9]
  RFU: 3.9
[10]
  log Ks: 5.6
[11]
  RFU: 4
[12]
  log Ks: 5.8
[13]
  ΔTm: 7.5 °C
[14]
  ΔTm: 7.7 °C
[15]
  ΔTm: 1.8 °C
[16]
  ΔTm: 4.9 °C
[17]
  ΔTm: 5.8 °C
[18]
  ΔTm: 4.2 °C
[19]
  ΔTm: 2.3 °C
[20]
  ΔTm: 2.1 °C
[21]
  Activity: Active
[22]
  Activity: Active
[23]
  Activity: Active
[24]
  Activity: inactive
[25]
  inhibition at 100 µM: 26.8%
[26]
  Activity: Dose-dependent effect
[27]
  Activity: inactive
[28]
  Activity: inactive
[29]
  Activity: inactive
[30]
  Activity: inactive
[31]
  RFU: -38.5
[32]
  RFU: -7.2
[33]
  RFU: -6.4
[34]
  RFU: -15.8
[35]
  RFU: -16.7
[36]
  Tm: 73.8 °C
[37]
  Tm: 57.5 °C
[38]
  Tm: 57.7 °C
[39]
  Tm: 82.9 °C
[40]
  Tm: 84.2 °C
[41]
  Tm: 85.1 °C
[42]
  Tm: 69.1 °C
[43]
  Tm: 70.4 °C
[44]
  Tm: 53.8 °C
[45]
  Tm: 31 °C
